Among the test systems are CAKI-1 renal; HCC-2998 colon; HCT-15 colon; LOX IMVI melanoma; NCI-H23 lung; NCI/ADR-RES ovarian; SF-295 CNS; SF-539 CNS; SW-620 colon; TK-10 renal.
What all share (assay): NCI tumour cell line growth inhibition, 48 h

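96-well plates; 48 h exposure; 5 concentrations. Endpoints by linear interpolation between flanking doses. Not reached: highest tested concentration assigned. Definition used: TGI = concentration required for complete inhibition of growth.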

With `CC(C)(CO)CNc1cc(Cl)nc(N)n1`, the TGI in the assay on CAKI-1 renal, in the assay with HCC-2998 colon, in the assay on HCT-15 colon, in the assay with LOX IMVI melanoma, in the assay on NCI-H23 lung and in the assay with NCI/ADR-RES ovarian was above 100 µM throughout. Further, the TGI in the assay with SF-295 CNS, in the assay with SF-539 CNS, in the assay on SW-620 colon and in the assay on TK-10 renal was above 100 µM throughout.
Consider `CSc1c(C)n([O-])c2cc(Cl)c(Cl)cc2[n+]1=O`, for which the TGI in the assay with CAKI-1 renal was 32.5 µM; with HCC-2998 colon it was 38 µM; in the assay with HCT-15 colon, 49.6 µM; in the assay on LOX IMVI melanoma, 41.3 µM; with NCI-H23 lung, 31.8 µM; in the assay with NCI/ADR-RES ovarian it was 39.3 µM. In addition, the TGI with SF-295 CNS was above 100 µM; in the assay on SF-539 CNS, above 100 µM; in the assay with SW-620 colon, 42.9 µM; in the assay with TK-10 renal it was 35.6 µM.
As to `COc1ccc(/N=N/C(=NNC(=O)c2ccc(C)cc2)c2ccc(N(C)C)cc2)cc1`, the TGI in the assay with CAKI-1 renal is above 100 µM; in the assay on HCC-2998 colon, 98.4 µM; in the assay on HCT-15 colon, above 100 µM; in the assay on LOX IMVI melanoma, above 100 µM; in the assay on NCI-H23 lung, above 100 µM; in the assay with NCI/ADR-RES ovarian, above 100 µM. Besides, the TGI with SF-295 CNS, in the assay with SF-539 CNS, in the assay with SW-620 colon and with TK-10 renal was above 100 µM each time.

Source of the values: PubChem BioAssay (NCI).
